Where “and” joins values, the source holds several entries; their conditions need not be identical. Identical values can stand only once.
How the values were obtained:
AMPK [1] = target: T1, AMPK (Homo sapiens, UniProt Q13131); assay: AMPK and ACC phosphorylation by Western blot in PC-3 cells; type: cell-based; conditions: 25 µM, 1 hour; for Thr172 phosphorylation of AMPK (pAMPK/AMPK): compared to controls
T1 construct: endogenous in cells; host or cells: PC-3, DU145, LNCaP
Text: To investigate the effect of the compounds on AMPK activity at cellular level, compounds 8a-c and 9a-b were selected to perform AMPK phosphorylation assays in human prostate cancer cell lines. We use the PC-3 cell line as it is androgen-resistant and represents the advanced and aggressive stage of prostate cancer. […] AMPK inhibits lipogenic pathway through phosphorylation of its well-known substrate acetyl-CoA carboxylase (ACC). To confirm the modulation of AMPK activity in prostate cells by the compounds, we determined levels of phosphorylated ACC in 2-oxindole fluorinated derivatives-treated cells. […] It is worthy to note that the highest ACC phosphorylation was obtained with compound 8c denoting a powerful activity of this compound in PC-3 cells.
(§1) Figure 2 Effect of 2-oxindole fluorinated derivatives on AMPK activity in prostate cancer cells. (A) PC-3, DU145 and LNCaP cells were treated with 25 µM of the selected 2-oxindole fluorinated derivatives for 1 hour. Levels of the phosphorylated AMPK (pAMPK), phosphorylated ACC (pACC) and their total forms were determined by Western blot. Upper panel, a representative Western blot of three different experiments. β-tubulin (β-Tub) serves as a loading control. […] Lower panels, densitometric analyses of bands represented as the mean of the ratio pAMPK/AMPK or pACC/ACC ± SD of three different experiments. *p < 0.05 compared with the controls by one-way ANOVA followed by Fisher’s LSD test; ^#p < 0.05 compared with 2-oxindole fluorinated derivates or with the AMPK activators AMP or A769662 by one-way ANOVA followed by Tukey test.
(§2) Human prostate cancer epithelial PC-3, DU145 and LNCaP and human prostate normal RWPE-1 cells were purchased from American Type Culture Collection (ATCC CRL-1435 CRL-1740 and CRL 11609 respectively) (Rockville, MD, USA). The human prostate normal PNT2 cell line was purchased to ECACC (European Collection of Cell cultures, Salisbury, SP4 0JG, UK). Cells were routinely grown in RPMI 1640 medium supplemented with 100 IU/ml penicillin G sodium, 100 µg/ml streptomycin sulfate, 0.25 µg/ml amphotericin B (Invitrogen, Paisley, UK) and 10% fetal calf serum. Cells were used at passages between 10–20. For treatment experiments, cells were plated and grown over night, the medium was then replaced with serum-free RPMI 1640 for 24 hours and then incubated with different doses of the compounds for the indicated times.
Cells were lysed in Lysis buffer (50 mM Tris pH 7.4, 0.8 M NaCl, 5 mM MgCl2, 0.1% Triton X-100) containing Protease Inhibitor and Phosphatase inhibitor Cocktails (Roche, Basel, Switzerland). Protein concentrations were measured by BioRad™ protein assay kit (Richmond, CA, USA). Equal amount of protein (20 μg) from each sample was separated on 8% SDS–PAGE gels and transferred to PVDF membranes (BioRad). The membranes were blocked with blocking buffer (1× TBS, 0.1% Tween 20 with 5% w/v fat-free dry milk), washed and incubated with primary antibodies at 4 °C for 12 h. The membranes were subsequently washed with TBS-T (1× TBS and 0.1% Tween 20) and incubated with horseradish peroxidase-conjugated anti-mouse or anti-rabbit IgG antibodies (Sigma, St Louis, MO, USA) at room temperature for 1 h. The immune complex was visualized with an ECL system (Cell Signaling Technology). Films were analyzed by densitometry. The anti-pAMPKα1-thr172, pACC-ser79, pP53, P21, pRaptor and the antibodies against the corresponding total forms were obtained from Cell Signaling Technology (Danvers, MA, USA). The anti-caspase 3 and anti-procaspase 3 were from Santa Cruz Biotechnology (Dallas, Texas, USA). The anti-HIF1A was from Novus Biologicals LLC (Littleton, CO, USA). The anti-Cyclin D1 antibody was obtained from ThermoFisher (Alcobendas, Madrid, Spain). All the other chemicals were obtained from Sigma (St. Louis, MO, USA).

PNT2 cells = assay: Cell viability by MTT assay, PNT2 normal prostate cells; type: cell-based, human; conditions: PNT2, 50 μM
Description: (§3) Figure 3 Comparison of the effect of 2-oxindole fluorinated derivatives on the proliferation of human prostate cancer cells. (A) Normal (PTN2 and RWPE-1) and cancer (PC3,DU145 and LNCaP) prostate cells were treated with different doses of the compounds for 24 hours and cell viability was monitored by MTT assay. […] (C) PC-3, DU145 and LNCaP cells were treated with 25 µM of compound 8c for different times. Values were normalized with the control and represent the mean ± SD of at least three independent experiments. *p < 0.05 and **p < 0.01 compared to control by the Student’s - test.
as §2
(§4) Cell viability was determined by 3-(4,5-dimethylthiazol-2-yl)-2,5-diphenyltetrazolium bromide (MTT) (Sigma-Aldrich) method. […] The optical density in each well was evaluated by measurement of absorbance at 490 and 650 nm using a microplate reader (ELX 800 Bio-Tek Intruments, INC). IC50 values were calculated using GraphPad Prism vs 6.0 (GraphPad Software, Inc, La Jolla, CA, USA). Cell viability was also determined by counting viable and dead cells by Trypan blue staining. Trypan blue positive and negative cells were counted using a Countess^TM automated cell counter (Invitrogen, Carlsbad, CA, USA). Results were expressed in relation to total number of cells counted.

RWPE-1 cells = assay: Cell viability by MTT assay, RWPE-1 normal prostate cells; type: cell-based, human; conditions: RWPE-1, 50 μM
Description: as §3, §2, §4

DU145 cells = assay: Cell viability by MTT assay, DU145; type: cell-based, human; conditions: DU145, 50 μM
Description: as §3, §2
(§5) Cell viability was determined by 3-(4,5-dimethylthiazol-2-yl)-2,5-diphenyltetrazolium bromide (MTT) (Sigma-Aldrich) method. In brief, a total of 5000 cells/well were seeded into 12-well plate in a final volume of 1 mL. After treatments, 20 µl MTT solution (5 mg/ml in PBS) was added to the medium and cells were incubated at 37 °C for 4 h. Then, the supernatant was discarded and isopropanol was added to dissolve the formazan crystals. Treatments were carried out in triplicate. The optical density in each well was evaluated by measurement of absorbance at 490 and 650 nm using a microplate reader (ELX 800 Bio-Tek Intruments, INC). IC50 values were calculated using GraphPad Prism vs 6.0 (GraphPad Software, Inc, La Jolla, CA, USA). Cell viability was also determined by counting viable and dead cells by Trypan blue staining. Trypan blue positive and negative cells were counted using a Countess^TM automated cell counter (Invitrogen, Carlsbad, CA, USA). Results were expressed in relation to total number of cells counted.

LNCaP cells = assay: Cell viability by MTT assay, LNCaP; type: cell-based, human; conditions: 50 μM
Description: as §3, §2, §4

PC-3 cells = assay: Cell viability by MTT assay, PC-3; type: cell-based, human; conditions: PC-3, 50 μM
Description: as §3, §2, §5

[2] = test system: PTN2, RWPE-1, PC3, DU145 and LNCaP prostate cells; assay: Cell viability by MTT assay, statements for the five cell lines together; type: cell-based, human; conditions: 1–100 µM, dose-dependent, 24 hours
AMPK [3] = assay: AMPK and ACC phosphorylation by Western blot in LNCaP cells; type: cell-based, human; conditions: 25 µM, 1 hour
Description: as §1
Similar results were obtained although AMPK stimulation by compound 8c was not so strong (Fig. 2A). […]
Cells were lysed in Lysis buffer (50 mM Tris pH 7.4, 0.8 M NaCl, 5 mM MgCl2, 0.1% Triton X-100) containing Protease Inhibitor and Phosphatase inhibitor Cocktails (Roche, Basel, Switzerland). Protein concentrations were measured by BioRad™ protein assay kit (Richmond, CA, USA). […] Films were analyzed by densitometry. […]

AMPK [4] = assay: Characterization of AMPK activation by Western blot in PC-3 and LNCaP cells (Dorsomorphin, siRNA); type: cell-based, human; conditions: PC-3 and LNCaP cells, 5 μM Dorsomorphin + 25 µM 8c, 1 h and 24 h
Description: To further confirm the compound 8c-induced activation of AMPK, PC-3 and LNCaP cells were incubated with the compound for 1 h and 24 hours in the presence of the AMPK inhibitor Dorsomorphin. […] Accordingly, ACC phosphorylation was increased at 1 h and 24 h and prevented by Dorsomorphin in both cell lines. AMPK inhibits mTORC1 through phosphorylation of Raptor on two well-conserved serine residues (ser722 and ser792) inducing cell-cycle arrest in response to an energy stress. To further support the 8c-induced AMPK activation, we determined Raptor phosphorylation on Ser792 in prostate cells.
Figure 5 AMPK activation by compound 8c in prostate cancer cells. (A) PC-3 and LNCaP cells were treated with vehicle, 25 µM compound 8c, 25 µM compound 8c + 5 μM Dorsomorphin (8c + D) or 5 μM Dorsomorphin (D), for 1 hour or 24 hours and levels of the phosphorylated AMPK (pAMPK), phosphorylated ACC (pACC), phosphorylated Raptor (pRaptor) forms and HIF1α were determined by Western blot. Upper panel, representative Western blot of three different experiments. β-tubulin (β-Tub) serves as a loading control. Lower panel, densitometric analyses of bands represented as the mean of the ratio pAMPK/AMPK or pACC/ACC. (B) Cell viability monitored by MTT assay in PC-3 and LNCaP cells treated with vehicle, 25 µM and 50 μM compound 8c alone or in the presence of 5 μM Dorsomorphin or transfected with control siRNA (siC) or α1AMPK-selective siRNA (siAMPK). (C) LNCaP cells were treated with vehicle, 25 µM compound 8c, 25 µM compound 8c + 5 μM Dorsomorphin (8c + D) or 5 μM Dorsomorphin (D), for 24 hours and levels of Androgen Receptor (AR), Prostate specific antigen (PSA) and Prostate specific membrane antigen (PSMA) were determined by Western blot.Values were normalized with the control and represent the mean ± SD of at least three independent experiments. *p < 0.05 and **p < 0.01 compared to control and ^#p < 0.05 and ^##p < 0.01 compared with 8c-treated group by the Student’s t-test.
AMPK is a heterotrimeric protein composed by catalytic (α) and regulatory (β and γ) subunits. In mammals, different isoforms of α, β and γ subunits can associate to produce up to 12 AMPK different combinations. […]
Figure 6 Phosphorylation of AMPK and ACC in prostate cells transfected with selective AMPKα1 or AMPKα2 siRNA. […] Levels of the phosphorylated AMPK (pAMPK), phosphorylated ACC (pACC) and their total forms were determined by Western blot. […]
Cells were lysed in Lysis buffer (50 mM Tris pH 7.4, 0.8 M NaCl, 5 mM MgCl2, 0.1% Triton X-100) containing Protease Inhibitor and Phosphatase inhibitor Cocktails (Roche, Basel, Switzerland). Protein concentrations were measured by BioRad™ protein assay kit (Richmond, CA, USA). […]

T1 sequence (Q13131 whole entry): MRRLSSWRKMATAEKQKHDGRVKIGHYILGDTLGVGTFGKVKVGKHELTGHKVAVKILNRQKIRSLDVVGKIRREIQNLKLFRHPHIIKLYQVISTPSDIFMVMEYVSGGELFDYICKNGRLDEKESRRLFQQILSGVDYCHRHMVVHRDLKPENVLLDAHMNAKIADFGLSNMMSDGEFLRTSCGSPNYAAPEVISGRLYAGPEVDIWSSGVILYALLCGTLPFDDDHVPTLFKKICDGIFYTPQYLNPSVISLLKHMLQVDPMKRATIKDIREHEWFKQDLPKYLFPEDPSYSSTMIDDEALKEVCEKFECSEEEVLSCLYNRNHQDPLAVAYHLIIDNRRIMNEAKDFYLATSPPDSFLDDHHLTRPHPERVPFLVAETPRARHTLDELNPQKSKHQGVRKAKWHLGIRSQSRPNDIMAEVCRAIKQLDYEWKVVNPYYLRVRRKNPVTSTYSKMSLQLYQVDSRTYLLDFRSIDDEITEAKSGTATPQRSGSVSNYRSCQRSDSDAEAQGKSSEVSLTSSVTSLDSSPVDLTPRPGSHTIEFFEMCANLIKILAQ
T1 sequence (Q9Y478 2-270 partner limits assumed): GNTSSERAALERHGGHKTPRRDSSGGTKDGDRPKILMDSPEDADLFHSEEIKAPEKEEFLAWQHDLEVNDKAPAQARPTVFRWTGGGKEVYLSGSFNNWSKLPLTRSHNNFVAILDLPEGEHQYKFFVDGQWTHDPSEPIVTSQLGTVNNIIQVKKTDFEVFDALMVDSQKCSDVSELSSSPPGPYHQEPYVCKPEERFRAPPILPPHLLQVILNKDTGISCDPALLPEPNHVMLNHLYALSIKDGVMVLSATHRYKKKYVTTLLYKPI
T1 sequence (P54619 whole entry partner): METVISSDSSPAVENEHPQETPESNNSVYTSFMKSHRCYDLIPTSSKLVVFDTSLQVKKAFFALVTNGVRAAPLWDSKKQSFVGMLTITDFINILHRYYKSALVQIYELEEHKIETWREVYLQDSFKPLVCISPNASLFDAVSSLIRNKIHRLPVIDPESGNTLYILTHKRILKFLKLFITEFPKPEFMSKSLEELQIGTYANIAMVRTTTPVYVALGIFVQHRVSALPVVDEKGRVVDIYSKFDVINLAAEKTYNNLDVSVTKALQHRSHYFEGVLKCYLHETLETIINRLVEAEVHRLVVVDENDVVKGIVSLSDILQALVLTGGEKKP

Compound | ACC phosphorylation (pACC/ACC) (AMPK [1]) | Thr172 phosphorylation of AMPK (pAMPK/AMPK) (AMPK [1]) | inhibitory efficacy on cells viability at 50 μM (DU145 cells) | inhibitory efficacy on cells viability at 50 μM (PC-3 cells) | also measured
O=C1Nc2ccccc2C1(F)Cc1ccc[nH]1 (stereo not shown) [Compound 8a, 3-((1H-pyrrol-2-yl)methyl)-3-fluoroindolin-2-one] | inhibited ACC phosphorylation | slightly, although significantly, inhibited AMPK phosphorylation | – | – | melting point: 143 to 146 °C
O=C1Nc2ccc(Cl)cc2C1(F)Cc1ccc(N2CCCC2)cc1 (stereo not shown) [Compound 8b, 5-chloro-3-fluoro-3-(4-(pyrrolidin-1-yl)benzyl)indolin-2-one] | inhibited ACC phosphorylation | slightly, although significantly, inhibited AMPK phosphorylation | 14% | 3% | inhibitory efficacy on cells viability at 50 μM (PNT2 cells): 0%; inhibitory efficacy on cells viability at 50 μM (RWPE-1 cells): 17%; inhibitory efficacy on cells viability at 50 μM (LNCaP cells): 11%
c1cc(-c2cnn3cc(-c4ccc(OCCN5CCCCC5)cc4)cnc23)ccn1 [Dorsomorphin, reference compound] | – | – | – | – | effect on AMPK activation by compound 8c (AMPK [4]): blocked AMPK activation by compound 8c both at 1 h and 24 h

Second part, led by results:

ACC phosphorylation (pACC/ACC) (AMPK [1]) | Compound | Thr172 phosphorylation of AMPK (pAMPK/AMPK) (AMPK [1]) | inhibitory efficacy on cells viability at 50 μM (DU145 cells) | inhibitory efficacy on cells viability at 50 μM (PC-3 cells) | also measured
inhibited ACC phosphorylation | O=C1N(Cc2ccccc2)c2ccccc2C1(F)Cc1ccc[nH]1 (stereo not shown) [Compound 9a, 3-((1H-pyrrol-2-yl)methyl)-1-benzyl-3-fluoroindolin-2-one] | slightly, although significantly, inhibited AMPK phosphorylation | – | – | inhibition of cell proliferation [2]: effectively inhibited cell proliferation
augmented pACC | O=C1N(Cc2ccccc2)c2ccc(Cl)cc2C1(F)Cc1ccc(N2CCCC2)cc1 (stereo not shown) [Compound 9b, 1-benzyl-5-chloro-3-fluoro-3-(4-(pyrrolidin-1-yl)benzyl)indolin-2-one] | weak AMPK activation | 14% and 17% | 27% and 23% | AMPK phosphorylation (pAMPK/AMPK) (AMPK [3]): slightly increases AMPK phosphorylation in PC-3 cells but not in LNCaP cells

Reference: article PMC5847527, “Identification of a novel 2-oxindole fluorinated derivative as in vivo antitumor agent for prostate cancer acting via AMPK activation” (Scientific Reports, 2018)
